In patent publication US12012415B2, “Compositions and methods for the diagnosis, treatment and prevention of neoplastic and neurological disorders” (AscentGene, Inc., priority 2018, dated 2024):

Key:
[1] = system: NR2A, NR2B, PSD-95 and SYP; assay: Western blot of synaptic proteins in hippocampal fractions, Aβ1-42 AD rat model; type: in vivo, rats
Description: Aβ1-42 (Sigma-Aldrich, St. Louis, MO, USA;) was dissolved in double-distilled water at the concentration of 5 μg/μl, and incubated at 37° C. for one week before surgery. The rats were randomly divided into four groups as Sham (n=8), Sham+AG-1601 (n=8), Aβ1-42 (n=8) and Aβ1-42+AG-1601 (n=8). The Alzheimer's disease rat models were established by intracerebroventricular (i.c.v.) injection of Aβ1-42 aggregates. The animals were anesthetized with intraperitoneal injection of pentobarbital sodium (50 mg/kg) and placed in a stereotaxic apparatus (Narishige, Japan). The head skin of the rat was opened and two small holes were drilled on both sides of skull following the coordinates: 0.8 mm posterior to bregma, +1.4 mm lateral to sagittal suture, 4.0 mm beneath the surface of brain. Aβ1-42 (2.0 μl per side) was injected bilaterally into the lateral ventricles through micro-syringe. The needle was taken out after 5 minutes of the injection to ensure the aggregates were infused completely. Rats in the Sham group underwent the same operational process, but same volumes of double-distilled water were injected instead of Aβ1-42. After surgery, all rats were injected with penicillin (100,000 U) in the hindquarter muscle to prevent infection. The animals of Sham+AG-1601 and Aβ1-42+AG-1601 groups were intravenous injection with AG-1601 (1 mg/kg), while the same volume vehicle was implemented for the other groups every day for 14 days after one week of the postoperative recovery.
Three rats of each group were randomly selected to be sacrificed and their hippocampal tissues were immediately removed at 0° C. and stored at minus 80° C. For subcellular fractionation, 100- to 200-mg weight rat hippocampal tissue was used. The procedure has been described (Yang et al., 2017). The tissues were homogenized for 30 s in 500 μl TEVP buffer containing 320 mM sucrose and the homogenate was obtained. The homogenate (H) was centrifuged at 900×g for 10 min at 4° C., and the supernatant (S1) was centrifuged for 20 min at 10000×g at 4° C. to obtain the cytosolic/light membrane fraction (S2) and the crude synaptosomal fraction pellet (P2). The pellet was resuspended in TEVP buffer containing 35.6 mM sucrose solution and then centrifuged at 25,000×g for 20 min at 4° C. The supernatant was stored at minus 80° C. and referred as the synaptic vesicular fraction (LS1). The pellet, synaptic plasma membranes (LP1), was resuspended in TEVP buffer containing 1% Triton X-100 and centrifuged at 330,000×g for 30 min at 4° C. The supernatant referred as Triton X-100-soluble fraction (TSF) was stored at minus 80° C. The final pellet, the Triton X-100-insoluble fraction (TIF), was homogenized in TEVP buffer containing 1% SDS.
The concentration of every component was measured by the BCA protein assay kit (Beyotime Biotechnology, China). The components were finally boiled with 4× loading buffer at 100° C. for 15 min and stored at minus 80° C. for Western blot assay.
The total homogenate (H) and synaptosomal fractions were analyzed. Equal amounts of 20 μg from each sample were separated via 10% or 13% SDS-PAGE gels and subsequently transferred onto PVDF membranes (Millipore, USA). The membranes were blocked with 5% nonfat dry milk for 1 h at room temperature and then incubated with primary antibodies (Anti-synaptophysin, 1: 1000, Abcam; Anti-NR 2A, 1: 2000, Abcam; Anti-NR 2B, 1: 2000, Abcam; Anti-PSD-95, 1: 2000, Abcam; Anti-CREB, 1: 2000,Abcam; Anti-CREB phosphorylation, 1: 2000, Abcam; Anti-SIRT1, 1: 2000, Santa Cruz Biotechnology; Anti-β-actin, 1:5000, Santa Cruz Biotechnology) overnight at 4° C. Membranes were then incubated for 1 h at room temperature with horseradish peroxidase-conjugated secondary antibodies (Promega). After washing with TBST buffer, signals were visualized with the HRP substrate (Millipore, USA) and detected with a chemiluminescence kit (Tanon 5500, Tanon Science & Technology, China). The gray-scale value of protein band was quantified by NIH Image J program. […]

SF295 xenograft tumor = assay: SF295 GBM xenograft mice model; type: in vivo; settings: 150 μg/mice IP every other day, 28 days
Description: Female SHO mice (Crl:SHO-Prkdescid Hr/6-8 weeks) were purchased from Charles River. Human glioblastoma cell line SF295 cells were injected subcutaneously on the right flank of 8 week female SHO mice (3×10^6/per mice), tumor appears around one week (day 7) post inoculation. When the tumor size reaches the volume of 100 mm^3, total 12 mice were randomly divided to two groups (Treatment & Vehicle). 100 μl of 1.5 μg/μl of AG-1601 (total 150 μg/mice) was injected via IP to each mouse in the Treatment Group every other day for total 28 days; the same volume of H2O was injected to the mouse in the Vehicle Group. Tumor size measurement was evaluated using the digital calipers and tumor size was calculated using the following formula [mm^3=((L+W)/4)×((L+W)/4)×((L+W)/4)×4/3×3.14159], data are platted as relative mean tumor volume+/−standard error of the mean.

[2] = total homogenate (H), vs Aβ1-42 group

C=CC1=C(C)c2cc3[nH]c(cc4nc(cc5[nH]c(cc1n2)c(C)c5C=C)C(C)=C4CCC(=O)O)c(CCC(=O)NCCCc1ccccc1)c3C [AG-1601, 3-(2,8,13,18-tetramethyl-3-(3-oxo-3-((3-phenylpropyl)amino)propyl)-12,17-divinylporphyrin-7-yl)propanoic acid]
NR2A level ([1]; TIF fraction, vs Aβ1-42 group): increased | NR2B level ([1]; TIF fraction, vs Aβ1-42 group): increased | PSD-95 level ([1]; TIF fraction, vs Aβ1-42 group): increased | SYP level ([1]; TSF fraction, vs Aβ1-42 group): also increased | SYP expression ([1]; homogenates of hippocampal tissues, vs Aβ42 group): this effect was overcome | NR2A level [1, 2]: increased | NR2B level [1, 2]: increased | PSD-95 level [1, 2]: this effect was overcome | PSD-95 level ([1]; total homogenate (H), vs Aβ1-42 group, listed as AG-1061): increased | efficacy on SF295 xenograft tumor (SF295 xenograft tumor): shows efficacy
